Columns and labels:
Assay in all cases: relative viability (nuclei count vs DMSO), 5 days (fraction); higher = more cells survive
NCI-H1792 = tested on: NCI-H1792
Summary of the method: (§1)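 A single step with final 0.05% Triton X-100, 1% formaldehyde and 1 ug/ml Hoechst fixed the cells and stained nuclei 5 days after treatment. Lung cancer cell lines in 1536-well plates had been treated by pin tool the day after seeding with one drug alone or a fixed anchor-drug dose plus five library-drug doses (not always all listed) in √10 steps, and nuclei were counted on 4× images. Relative viability is the ratio of nuclei in treated wells to nuclei in vehicle wells, taken as the median of duplicate plates.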

NCI-H1437 = tested on: NCI-H1437
Summary of the method: as §1

NCI-H2342 = tested on: NCI-H2342
Summary of the method: as §1

A-427 = tested on: A-427
Summary of the method: as §1

NCI-H650 = tested on: NCI-H650
Summary of the method: as §1

NCI-H1975 = tested on: NCI-H1975
Summary of the method: as §1

HCC-15 = tested on: HCC-15
Summary of the method: as §1

NCI-H838 = tested on: NCI-H838
Summary of the method: as §1

NCI-H23 = tested on: NCI-H23
Summary of the method: as §1

SW 900 = tested on: SW 900
Summary of the method: as §1

EKVX = tested on: EKVX
Summary of the method: as §1

COR-L23 = tested on: COR-L23
Summary of the method: as §1

201T = tested on: 201T
Summary of the method: as §1

NCI-H1666 = tested on: NCI-H1666
Summary of the method: as §1

HCC-827 = tested on: HCC-827
Summary of the method: as §1

HCC-44 = tested on: HCC-44
Summary of the method: as §1

SK-MES-1 = tested on: SK-MES-1
Summary of the method: as §1

NCI-H358 = tested on: NCI-H358
Summary of the method: as §1

NCI-H441 = tested on: NCI-H441
Summary of the method: as §1

BEN = tested on: BEN
Summary of the method: as §1

HARA = tested on: HARA
Summary of the method: as §1

NCI-H596 = tested on: NCI-H596
Summary of the method: as §1

NCI-H1650 = tested on: NCI-H1650
Summary of the method: as §1

O=c1cc(N2CCOCC2)oc2c(-c3cccc4c3sc3ccccc34)cccc12 + Nc1ncn([C@H]2C[C@H](O)[C@@H](CO)O2)c(=O)n1 [Decitabine] (partner 2 µM)
relative viability (NCI-H1792; first compound 0.01 µM): 0.581
relative viability (NCI-H1792; first compound 0.03162 µM): 0.531
relative viability (NCI-H1792; first compound 0.3162 µM): 0.556
relative viability (NCI-H1792; first compound 1 µM): 0.561
relative viability (NCI-H1437; first compound 0.01 µM): 0.587
relative viability (NCI-H1437; first compound 0.03162 µM): 0.562
relative viability (NCI-H1437; first compound 0.1 µM): 0.638
relative viability (NCI-H1437; first compound 0.3162 µM): 0.549
relative viability (NCI-H1437; first compound 1 µM): 0.625
relative viability (NCI-H2342; first compound 0.01 µM): 0.631
relative viability (NCI-H2342; first compound 0.03162 µM): 0.652
relative viability (NCI-H2342; first compound 0.1 µM): 0.774
relative viability (NCI-H2342; first compound 0.3162 µM): 0.726
relative viability (NCI-H2342; first compound 1 µM): 0.672
relative viability (A-427; first compound 0.01 µM): 0.606
relative viability (A-427; first compound 0.03162 µM): 0.552
relative viability (A-427; first compound 0.1 µM): 0.58
relative viability (A-427; first compound 0.3162 µM): 0.591
relative viability (A-427; first compound 1 µM): 0.592
relative viability (NCI-H650; first compound 0.01 µM): 0.319
relative viability (NCI-H650; first compound 0.03162 µM): 0.384
relative viability (NCI-H650; first compound 0.3162 µM): 0.338
relative viability (NCI-H650; first compound 1 µM): 0.303
relative viability (NCI-H1975; first compound 0.01 µM): 0.438
relative viability (NCI-H1975; first compound 0.03162 µM): 0.4
relative viability (NCI-H1975; first compound 0.1 µM): 0.394
relative viability (NCI-H1975; first compound 0.3162 µM): 0.371
relative viability (NCI-H1975; first compound 1 µM): 0.353
relative viability (HCC-15; first compound 0.01 µM): 0.632
relative viability (HCC-15; first compound 0.03162 µM): 0.639
relative viability (HCC-15; first compound 0.1 µM): 0.774
relative viability (HCC-15; first compound 0.3162 µM): 0.59
relative viability (HCC-15; first compound 1 µM): 0.724
relative viability (NCI-H838; first compound 0.01 µM): 0.481
relative viability (NCI-H838; first compound 0.03162 µM): 0.49
relative viability (NCI-H838; first compound 0.1 µM): 0.479
relative viability (NCI-H838; first compound 0.3162 µM): 0.482
relative viability (NCI-H838; first compound 1 µM): 0.478
relative viability (NCI-H23; first compound 0.01 µM): 0.288
relative viability (NCI-H23; first compound 0.03162 µM): 0.322
relative viability (NCI-H23; first compound 0.3162 µM): 0.326
relative viability (NCI-H23; first compound 1 µM): 0.307
relative viability (SW 900; first compound 0.03162 µM): 0.435
relative viability (SW 900; first compound 0.1 µM): 0.471
relative viability (SW 900; first compound 0.3162 µM): 0.459
relative viability (SW 900; first compound 1 µM): 0.456
relative viability (EKVX; first compound 0.01 µM): 0.355
relative viability (EKVX; first compound 0.03162 µM): 0.321
relative viability (EKVX; first compound 0.1 µM): 0.37
relative viability (EKVX; first compound 0.3162 µM): 0.282
relative viability (EKVX; first compound 1 µM): 0.336
relative viability (COR-L23; first compound 0.01 µM): 0.515
relative viability (COR-L23; first compound 0.03162 µM): 0.434
relative viability (COR-L23; first compound 0.1 µM): 0.475
relative viability (COR-L23; first compound 0.3162 µM): 0.467
relative viability (COR-L23; first compound 1 µM): 0.504
relative viability (201T; first compound 0.01 µM): 0.843
relative viability (201T; first compound 0.03162 µM): 0.863
relative viability (201T; first compound 0.1 µM): 0.83
relative viability (201T; first compound 0.3162 µM): 0.86
relative viability (201T; first compound 1 µM): 0.818
relative viability (NCI-H1666; first compound 0.01 µM): 0.71
relative viability (NCI-H1666; first compound 0.03162 µM): 0.762
relative viability (NCI-H1666; first compound 0.1 µM): 0.713
relative viability (NCI-H1666; first compound 0.3162 µM): 0.736
relative viability (NCI-H1666; first compound 1 µM): 0.677
relative viability (HCC-827; first compound 0.01 µM): 0.291
relative viability (HCC-827; first compound 0.03162 µM): 0.329
relative viability (HCC-827; first compound 0.1 µM): 0.296
relative viability (HCC-827; first compound 0.3162 µM): 0.314
relative viability (HCC-827; first compound 1 µM): 0.161
relative viability (HCC-44; first compound 0.01 µM): 0.962
relative viability (HCC-44; first compound 0.03162 µM): 0.993
relative viability (HCC-44; first compound 0.1 µM): 0.97
relative viability (HCC-44; first compound 0.3162 µM): 0.96
relative viability (HCC-44; first compound 1 µM): 0.986
relative viability (SK-MES-1; first compound 0.01 µM): 0.419
relative viability (SK-MES-1; first compound 0.03162 µM): 0.43
relative viability (SK-MES-1; first compound 0.1 µM): 0.366
relative viability (SK-MES-1; first compound 0.3162 µM): 0.351
relative viability (SK-MES-1; first compound 1 µM): 0.365
relative viability (NCI-H358; first compound 0.01 µM): 0.222
relative viability (NCI-H358; first compound 0.03162 µM): 0.218
relative viability (NCI-H358; first compound 0.1 µM): 0.218
relative viability (NCI-H358; first compound 0.3162 µM): 0.21
relative viability (NCI-H358; first compound 1 µM): 0.193
relative viability (NCI-H441; first compound 0.01 µM): 0.279
relative viability (NCI-H441; first compound 0.03162 µM): 0.255
relative viability (NCI-H441; first compound 0.1 µM): 0.26
relative viability (NCI-H441; first compound 0.3162 µM): 0.208
relative viability (NCI-H441; first compound 1 µM): 0.228
relative viability (BEN; first compound 0.01 µM): 0.73
relative viability (BEN; first compound 0.03162 µM): 0.748
relative viability (BEN; first compound 0.1 µM): 0.589
relative viability (BEN; first compound 0.3162 µM): 0.76
relative viability (BEN; first compound 1 µM): 0.664
relative viability (HARA; first compound 0.01 µM): 0.536
relative viability (HARA; first compound 0.03162 µM): 0.466
relative viability (HARA; first compound 0.1 µM): 0.617
relative viability (HARA; first compound 0.3162 µM): 0.481
relative viability (HARA; first compound 1 µM): 0.476
relative viability (NCI-H596; first compound 0.01 µM): 0.974
relative viability (NCI-H596; first compound 0.03162 µM): 1.07
relative viability (NCI-H596; first compound 0.1 µM): 1.09
relative viability (NCI-H596; first compound 0.3162 µM): 1.03
relative viability (NCI-H596; first compound 1 µM): 1.05
relative viability (NCI-H1650; first compound 0.01 µM): 0.362
relative viability (NCI-H1650; first compound 0.03162 µM): 0.384
relative viability (NCI-H1650; first compound 0.1 µM): 0.489
relative viability (NCI-H1650; first compound 0.3162 µM): 0.53
relative viability (NCI-H1650; first compound 1 µM): 0.399

— the supplement of paper PMC10307832
